Data taken from PubChem BioAssay (NCI).
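Exposure lasted 48 hours, with cells grown in 96-well plates and compounds tested at five concentrations. TGI is the concentration that stops growth completely.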

How the values were obtained:
Experiment in all cases: NCI-60 cell line screen, 48 h
EKVX NSCLC = test system: EKVX NSCLC
K-562 leukemia = test system: K-562 leukemia
MOLT-4 leukemia = test system: MOLT-4 leukemia
NCI-H23 lung = test system: NCI-H23 lung
RXF 393 renal = test system: RXF 393 renal
SF-295 CNS = test system: SF-295 CNS
SF-539 CNS = test system: SF-539 CNS
SNB-75 CNS = test system: SNB-75 CNS
UO-31 renal = test system: UO-31 renal
CAKI-1 renal = test system: CAKI-1 renal

| SMILES | TGI (EKVX NSCLC) [µM] | TGI (K-562 leukemia) [µM] | TGI (MOLT-4 leukemia) [µM] | TGI (NCI-H23 lung) [µM] | TGI (RXF 393 renal) [µM] | TGI (SF-295 CNS) [µM] | TGI (SF-539 CNS) [µM] | TGI (SNB-75 CNS) [µM] | TGI (UO-31 renal) [µM] | TGI (CAKI-1 renal) [µM] |
| --- | --- | --- | --- | --- | --- | --- | --- | --- | --- | --- |
| CN(C)CCOc1ccc(I)cc1Cc1ccccc1 | 28.8 | 11.2 | 20.2 | 12.6 | 32.5 | 30.1 | 27.8 | 6.79 | 20.4 | – |
| CC(C)Nc1[nH]c(C(=O)c2ccccc2)c(N)c1C(=S)Nc1ccccc1 | > 100 | > 100 | > 100 | > 100 | – | > 100 | > 100 | > 100 | > 100 | > 100 |
| Cc1cc2nc(N3C(=O)/C(=C/c4cccc([N+](=O)[O-])c4)N=C3c3ccccc3)sc2cc1C | 94.3 | > 100 | 32.4 | – | 58 | > 100 | > 100 | 33.2 | > 100 | > 100 |
| O=C1/C(=C\c2ccc([N+](=O)[O-])cc2)Sc2scc(-c3ccc(O)c(O)c3)[n+]21 | 31.6 | > 100 | 51.3 | 44.6 | – | 31.8 | 22.5 | 25.9 | 22.3 | 9.72 |
| O=C(O)C(Cc1ccc2c(c1)CCC2)(Cc1ccc2c(c1)CCC2)C(=O)O | > 100 | > 100 | > 100 | > 100 | > 100 | > 100 | > 100 | > 100 | > 100 | – |
| CCOc1ccc2ccccc2c1NC1=NCCO1 | > 100 | 61.3 | 84 | > 100 | > 100 | 65.5 | > 100 | > 100 | 64.7 | – |
| CC[C@@H]1CN2CCC1C[C@@H]2C(O)c1ccnc2ccc(OCCN3CCN(CCOc4ccc5nccc(C(O)[C@@H]6C[C@@H]7CCN6C[C@@H]7CC)c5c4)CC3)cc12 (stereo partly specified) | 31.2 | 6.2 | 21.7 | 43.7 | 34.2 | 30.5 | 36.7 | – | – | 32.5 |
| CC[C@@H](CCCC[C@@H]1CC[C@H]2CC(=O)C[C@@H]12)OC | > 100 | > 100 | > 100 | > 100 | > 100 | > 100 | > 100 | > 100 | – | > 100 |
| COc1ccc(NC(=O)CC(=O)n2nc(C)c(N=Nc3ccc(C)c(C)c3)c2C)cc1 | 52 | – | > 100 | > 100 | > 100 | > 100 | > 100 | 87 | 54.8 | > 100 |
| O=C1NCC2(CCNCC2)N1c1ccccc1 | > 100 | > 100 | > 100 | > 100 | > 100 | > 100 | > 100 | > 100 | – | > 100 |
| CC(=O)N1c2ccccc2C(C)(C)OC1C(Cl)(Cl)Cl (stereo unspecified) | > 100 | – | 35.5 | > 100 | – | > 100 | > 100 | 71.9 | > 100 | > 100 |
| O/N=c1/ccn(O)c2ccccc12 | 11.2 | > 19.9 | – | 8.96 | 1.64 | 2.9 | 2.41 | 1.98 | 3.93 | 5.99 |
| O=C1Nc2cccc3ncn(c23)C2=C1CCCC2 | > 100 | > 100 | > 100 | > 100 | > 100 | > 100 | > 100 | – | > 100 | – |
| O=C1CC2CC=C[C@H]3c4cc5c(cc4C(=O)N1C23)OCO5 (stereo partly specified) | > 50 | > 50 | > 50 | > 50 | > 50 | > 50 | > 50 | > 50 | > 50 | – |
| CC(=O)Oc1c(C)cc(-c2cc(C)c(OC(C)=O)c(C)c2)cc1C | > 100 | > 100 | > 100 | 42.8 | – | 93.8 | – | 60.9 | 84.6 | > 100 |
| O=C1C(C(O)(C(F)(F)Cl)C(F)(F)Cl)CCC1C(O)(C(F)(F)Cl)C(F)(F)Cl (stereo unspecified) | > 10 | > 10 | > 10 | 6.19 | > 10 | 5.99 | 8.56 | > 10 | – | 9.69 |
| O=C(O)C(CS)NCc1c2ccccc2[n+]([O-])c2ccccc12 (stereo unspecified) | > 100 | > 100 | 78.9 | > 100 | – | > 100 | – | > 100 | 66.3 | > 100 |
| COC(=O)C1Cc2ccc(C)cc2C1=O (stereo unspecified) | > 100 | > 100 | > 100 | > 100 | – | > 100 | > 100 | > 100 | > 100 | > 100 |
| CC(=O)Oc1ccc(N2C(=O)C3c4[nH]c5ccccc5c4C4CCC(C(C)(C)C)CC4C3C2=O)cc1 (stereo unspecified) | 9.41 | 10.9 | 94.2 | 8.79 | 5.64 | 14.8 | 18.3 | – | 17.7 | 16 |
| CC(O)c1c2c(cc3c1CC1(C3)Cc3cc4c(c(C(C)O)c3C1)CCC4)CCC2 (stereo unspecified) | 96.2 | 26.8 | 26.3 | 40.4 | 30 | 45.2 | 46.4 | – | 3.26 | – |
| CSc1c(C(=O)Nc2ccc(C)cc2)c(N)nn1-c1ccccc1 | > 100 | > 100 | > 100 | > 100 | 75.3 | > 100 | 92.1 | – | > 100 | 49.9 |
| N#Cc1ncn(-c2ccccc2)c1N | > 100 | > 100 | > 100 | > 100 | – | > 100 | > 100 | > 100 | > 100 | > 100 |
| Cc1cn(CC2=NCCN2)c(=O)[nH]c1=O | > 100 | > 100 | > 100 | > 100 | > 100 | > 100 | – | > 100 | > 100 | > 100 |
